In article PMC11597625, “Mutational Analysis of Substrate Recognition in Trypsin-like Protease Cocoonase: Protein Memory Induced by Alterations in Substrate-Binding Site” (Molecules, 2024):

Biological target: T1, CCN′ ([K63G,K131G,K133A]-CCN, degradation-suppressed cocoonase) (Bombyx mori, UniProt A7TVD3, K85G/K153G/K155A)
T1 construct: mature enzyme, propeptide removed (precursors carried K8D or K8D/E10D/E11D in the propeptide)
Assay: BAEE hydrolysis assay
Assay type: biochemical
Conditions: assay conditions not described

T1 sequence (A7TVD3 entry or part of it K85G/K153G/K155A): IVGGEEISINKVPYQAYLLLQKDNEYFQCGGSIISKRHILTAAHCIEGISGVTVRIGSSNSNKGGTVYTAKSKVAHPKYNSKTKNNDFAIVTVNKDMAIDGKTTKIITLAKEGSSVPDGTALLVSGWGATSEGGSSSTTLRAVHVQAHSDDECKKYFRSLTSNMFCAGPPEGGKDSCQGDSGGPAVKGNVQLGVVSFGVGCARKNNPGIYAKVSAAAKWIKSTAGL

Km: 372 µM
SMILES: CCOC(=O)[C@H](CCCNC(=N)N)NC(=O)c1ccccc1 [BAEE]
